Reference: US20250289813A1, “CDK INHIBITORS, PHARMACEUTICAL COMPOSITIONS, AND THERAPEUTIC APPLICATIONS” (ONQUALITY PHARMACEUTICALS CHINA LTD., priority 2022, published 2025)

Legend:
CDK4/cyclin D1 = CDK4/cyclin D1 (Homo sapiens (Human), UniProt P11802); assay: CDK4 Caliper Mobility Shift assay; assay type: biochemical
Experimental: (§1) A Caliper Mobility Shift assay was used to determine the inhibitory activities of a compound against CDK4/cyclin D1 and CDK6/cyclin D1 in their respective kinase buffers (CDK4: 20 mM HEPES, pH 7.5, and 0.01% Triton X-100; CDK6: 50 mM HEPES, pH 7.5, and 0.0015% BRIJ-35). The CDK4/cyclin D1 and CDK6/cyclin D1 were obtained from PROQINASE and CARNA, respectively. A FAM-labeled peptide was obtained from GL.
(§2) The compound at predetermined concentrations was pre-incubated with CDK4/cyclin D1 or CDK6/cyclin D1 in a 384-well microplate at room temperature for 10 min. The FAM-labeled peptide and ATP were subsequently added to initiate the kinase reactions. The final enzyme concentrations were 15 nM for CDK4 and 7.5 nM for CDK6. The final ATP concentrations were […] for CDK4 and […] for CDK6. The microplate was allowed to incubate at 28° C. The kinase reactions were stopped by adding a stop buffer (100 mM HEPES, pH 7.5, 0.012% BRIJ-35, 0.2% Coating Reagent 3 (Caliper Life Sciences), and […]). Conversion data were recorded and utilized to calculate the percent inhibition values for each compound and an IC50 value was then determined. The results are summarized in Table 1, where the symbol “***” represents a value no greater than 200 nM, the symbol “**” represents a value greater than 200 nM but no greater than 500 nM, and the symbol “*” represents a value greater than 500 nM.

[1] = tested on: MCF-7 human breast cancer cells; assay: CELLTITER-GLO luminescent cell viability assay; assay type: cell-based; details: MCF7, 192 h, MCF-7 cells, 8 days, read-out: EC50 (Effect on Cell Viability)
Experimental: A CELLTITER-GLO luminescent cell viability assay was carried out using MCF-7 human breast cancer cells under the normal growth condition. The MCF-7 human breast cancer cells were grown at 37° C. in a 5% CO2 humidified incubator in EMEM, supplemented 10% FBS, 0.01 mg/mL bovine insulin. The cells were seeded at a 3,000 cells/well in a 96-well tissue culture plate. The cells were allowed to adhere overnight in the incubator. A compound (5 μL) in a medium at a predetermined concentration. After the cells was incubated at 37° C. for 8 days, a CELLTITER-GLO detection solution (100 μL) was added. The cells were mixed on an orbital shaker for 5 min and then incubated for additional 10 min. The plate was read with an ENVISION reader. The results are summarized in Table 2, where the symbol “+++” represents a value no greater than 1 μM, the symbol “++” represents a value greater than 1 μM but no greater than 10 μM, and the symbol “+” represents a value greater than 10 μM.

CDK6/cyclin D1 = CDK6/cyclin D1 (Homo sapiens (Human), UniProt Q00534); assay: CDK6 Caliper Mobility Shift assay; assay type: biochemical
Experimental: as §1, §2

[2] = tested on: COLO205 human colon cancer cells; assay: CASPASE-GLO 3/7 apoptosis assay (protection against chemotherapy drug induced cytotoxicity); assay type: cell-based; details: 5-Fu (10 μM)
Experimental: The CASPASE-GLO 3/7 apoptosis assay was used to evaluate the protective effect of a compound on the cytotoxicity induced by a chemotherapy drug. The apoptosis assay was carried out using COLO205 human colon cancer cells. The cells were grown at 37° C. in a 5% CO2 humidified incubator in PRIM1640 supplemented with 10% FBS and 0.01 mg/mL bovine insulin. The cells were seeded at 4,000 cells/well in a 96-well plate. After incubated overnight, the cells were pretreated with a compound at predetermined concentrations or a vehicle for 16 h, followed by addition of a chemotherapy drug. After incubated for another 48 h, the CASPASE-GLO 3/7 reagent (100 μL/well) was added. The cells were mixed on an orbital shaker for 10 min and incubated at room temperature for 2 h. The 96-well plate was read with an ENVISION reader.

Chain of CDK4/cyclin D1 (P11802 whole entry): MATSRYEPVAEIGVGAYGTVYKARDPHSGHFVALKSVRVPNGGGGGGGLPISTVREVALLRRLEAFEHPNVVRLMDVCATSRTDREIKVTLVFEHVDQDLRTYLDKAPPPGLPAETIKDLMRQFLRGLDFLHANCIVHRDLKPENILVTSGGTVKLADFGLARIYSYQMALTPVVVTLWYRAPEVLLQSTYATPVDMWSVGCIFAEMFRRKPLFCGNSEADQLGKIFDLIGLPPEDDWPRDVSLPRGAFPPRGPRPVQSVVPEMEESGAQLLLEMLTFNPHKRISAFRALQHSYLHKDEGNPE
Chain of CDK4/cyclin D1 (P24385 whole entry partner): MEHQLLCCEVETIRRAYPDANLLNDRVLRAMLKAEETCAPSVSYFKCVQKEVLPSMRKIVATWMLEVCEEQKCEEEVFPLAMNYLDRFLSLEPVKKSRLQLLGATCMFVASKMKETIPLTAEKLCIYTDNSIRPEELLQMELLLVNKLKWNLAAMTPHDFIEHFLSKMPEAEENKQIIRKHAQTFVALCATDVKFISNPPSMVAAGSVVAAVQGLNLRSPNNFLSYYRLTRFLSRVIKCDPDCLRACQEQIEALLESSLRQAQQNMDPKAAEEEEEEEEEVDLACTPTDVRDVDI
Chain of CDK6/cyclin D1 (Q00534 whole entry): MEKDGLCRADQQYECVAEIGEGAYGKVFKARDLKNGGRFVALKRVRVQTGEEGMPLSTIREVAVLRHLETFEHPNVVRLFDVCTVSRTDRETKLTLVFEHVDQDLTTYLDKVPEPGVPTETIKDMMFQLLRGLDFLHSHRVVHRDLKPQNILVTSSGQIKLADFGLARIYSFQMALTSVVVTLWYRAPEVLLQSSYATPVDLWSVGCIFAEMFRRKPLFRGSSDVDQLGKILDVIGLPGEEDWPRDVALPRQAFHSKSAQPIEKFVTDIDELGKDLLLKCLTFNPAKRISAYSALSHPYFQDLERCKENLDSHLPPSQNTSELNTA
Chain of CDK6/cyclin D1 (P24385 whole entry partner): as the sequence (P24385 whole entry partner) above

Row | IC50 (CDK4/cyclin D1) | EC50 [1] | IC50 (CDK6/cyclin D1) | Structure (SMILES) | RPR (relative protection rate) ([2]; compound 1 μM) | RPR (relative protection rate) ([2]; compound 10 μM)
1 | ≤ 200 nM | ≤ 1000 nM | ≤ 200 nM | CC(=O)c1c(C)c2cnc(Nc3ccc(N4CCN(S(=O)(=O)NC(=O)[C@H]5CCCN5)CC4)cn3)nc2n(C2CCCC2)c1=O [Compound A33, (R)—N-((4-(6-((6-Acetyl-8-cyclopentyl-5-methyl-7-oxo-7,8-dihydropyrido[2,3-d]-pyrimidin-2-yl)amino)pyridin-3-yl)piperazin-1-yl)sulfonyl)pyrrolidine-2-carboxamide] | – | –
2 | 200 to 500 nM | 1000 to 10000 nM | 200 to 500 nM | CC(=O)c1c(C)c2cnc(Nc3ccc(N4CCN(S(=O)(=O)NC(=O)C5CCC5)CC4)cn3)nc2n(C2CCCC2)c1=O [Compound A41, N-((4-(6-((6-Acetyl-8-cyclopentyl-5-methyl-7-oxo-7,8-dihydropyrido[2,3-d]-pyrimidin-2-yl)amino)pyridin-3-yl)piperazin-1-yl)sulfonyl)cyclobutanecarboxamide] | – | –
3 | ≤ 200 nM | 1000 to 10000 nM | ≤ 200 nM | CC(=O)c1c(C)c2cnc(Nc3ccc(N4CCN(S(=O)(=O)NCCO)CC4)cn3)nc2n(C2CCCC2)c1=O [Compound A42, 4-(6-((6-Acetyl-8-cyclopentyl-5-methyl-7-oxo-7,8-dihydropyrido[2,3-d]-pyrimidin-2-yl)amino)pyridin-3-yl)-N-(2-hydroxyethyl)piperazine-1-sulfonamide] | – | –
4 | ≤ 200 nM | 1000 to 10000 nM | ≤ 200 nM | COCCNS(=O)(=O)N1CCN(c2ccc(Nc3ncc4c(C)c(C(C)=O)c(=O)n(C5CCCC5)c4n3)nc2)CC1 [Compound A43, 4-(6-((6-Acetyl-8-cyclopentyl-5-methyl-7-oxo-7,8-dihydropyrido[2,3-d]-pyrimidin-2-yl)amino)pyridin-3-yl)-N-(2-methoxyethyl)piperazine-1-sulfonamide] | – | –
5 | ≤ 200 nM | 1000 to 10000 nM | ≤ 200 nM | CC(=O)c1c(C)c2cnc(Nc3ccc(N4CCN(S(=O)(=O)N5CCOCC5)CC4)cn3)nc2n(C2CCCC2)c1=O [Compound A51, 6-Acetyl-8-cyclopentyl-5-methyl-2-((5-(4-(morpholinosulfonyl)piperazin-1-yl)-pyridin-2-yl)amino)pyrido[2,3-d]pyrimidin-7(8H)-one] | – | –
6 | ≤ 200 nM | 1000 to 10000 nM | ≤ 200 nM | CC(=O)c1c(C)c2cnc(Nc3ccc(N4CCN(S(=O)(=O)N5CC(O)C5)CC4)cn3)nc2n(C2CCCC2)c1=O [Compound A52, 6-Acetyl-8-cyclopentyl-2-((5-(4-((3-hydroxyazetidin-1-yl)sulfonyl)piperazin-1-yl)pyridin-2-yl)amino)-5-methylpyrido[2,3-d]pyrimidin-7(8H)-one] | – | –
7 | ≤ 200 nM | 1000 to 10000 nM | ≤ 200 nM | CC(=O)c1c(C)c2cnc(Nc3ccc(N4CCN(S(=O)(=O)OCOC(=O)c5ccccc5)CC4)cn3)nc2n(C2CCCC2)c1=O [Compound B3, (((4-(6-((6-Acetyl-8-cyclopentyl-5-methyl-7-oxo-7,8-dihydropyrido[2,3-d]-pyrimidin-2-yl)amino)pyridin-3-yl)piperazin-1-yl)sulfonyl)oxy)methyl benzoate] | – | –

Further lines, the compound ahead of its results:

Row | Structure (SMILES) | IC50 (CDK4/cyclin D1) | EC50 [1] | IC50 (CDK6/cyclin D1) | RPR (relative protection rate) ([2]; compound 1 μM) | RPR (relative protection rate) ([2]; compound 10 μM)
8 | CC(=O)c1c(C)c2cnc(Nc3ccc(N4CCN(S(=O)(=O)NC(=O)OC(C)C)CC4)cn3)nc2n(C2CCCC2)c1=O [Compound A27, Isopropyl ((4-(6-((6-acetyl-8-cyclopentyl-5-methyl-7-oxo-7,8-dihydropyrido[2,3-d]pyrimidin-2-yl)amino)pyridin-3-yl)piperazin-1-yl)sulfonyl)carbamate] | ≤ 200 nM | 1000 to 10000 nM | 200 to 500 nM | – | –
9 | CC(=O)c1c(C)c2cnc(Nc3ccc(N4CCN(S(=O)(=O)NC(=O)CN)CC4)cn3)nc2n(C2CCCC2)c1=O [Compound A29, N-((4-(6-((6-Acetyl-8-cyclopentyl-5-methyl-7-oxo-7,8-dihydropyrido[2,3-d]-pyrimidin-2-yl)amino)pyridin-3-yl)piperazin-1-yl)sulfonyl)-2-aminoacetamide] | ≤ 200 nM | ≤ 1000 nM | ≤ 200 nM | 89% | 78%
10 | CC(=O)c1c(C)c2cnc(Nc3ccc(N4CCN(S(=O)(=O)NC(=O)C(N)C(C)C)CC4)cn3)nc2n(C2CCCC2)c1=O (centres unmarked) [Compound A30, N-((4-(6-((6-Acetyl-8-cyclopentyl-5-methyl-7-oxo-7,8-dihydropyrido[2,3-d]-pyrimidin-2-yl)amino)pyridin-3-yl)piperazin-1-yl)sulfonyl)-2-amino-3-methylbutanamide] | ≤ 200 nM | ≤ 1000 nM | ≤ 200 nM | – | –
11 | CC(=O)NS(=O)(=O)N1CCN(c2ccc(Nc3ncc4c(C)c(C(C)=O)c(=O)n(C5CCCC5)c4n3)nc2)CC1 [Compound A34, N-((4-(6-((6-Acetyl-8-cyclopentyl-5-methyl-7-oxo-7,8-dihydropyrido[2,3-d]-pyrimidin-2-yl)amino)pyridin-3-yl)piperazin-1-yl)sulfonyl)acetamide] | ≤ 200 nM | > 10000 nM | ≤ 200 nM | – | –
12 | CC(=O)c1c(C)c2cnc(Nc3ccc(N4CCN(S(=O)(=O)NC(=O)C(C)C)CC4)cn3)nc2n(C2CCCC2)c1=O [Compound A36, N-((4-(6-((6-Acetyl-8-cyclopentyl-5-methyl-7-oxo-7,8-dihydropyrido[2,3-d]-pyrimidin-2-yl)amino)pyridin-3-yl)piperazin-1-yl)sulfonyl)isobutyramide] | ≤ 200 nM | 1000 to 10000 nM | 200 to 500 nM | – | –
13 | CCCC(=O)NS(=O)(=O)N1CCN(c2ccc(Nc3ncc4c(C)c(C(C)=O)c(=O)n(C5CCCC5)c4n3)nc2)CC1 [Compound A37, N-((4-(6-((6-Acetyl-8-cyclopentyl-5-methyl-7-oxo-7,8-dihydropyrido[2,3-d]-pyrimidin-2-yl)amino)pyridin-3-yl)piperazin-1-yl)sulfonyl)butyramide] | 200 to 500 nM | 1000 to 10000 nM | 200 to 500 nM | – | –
14 | CC(=O)c1c(C)c2cnc(Nc3ccc(N4CCN(S(=O)(=O)N[C@H](C(=O)O)C(C)C)CC4)cn3)nc2n(C2CCCC2)c1=O [Compound A45, ((4-(6-((6-Acetyl-8-cyclopentyl-5-methyl-7-oxo-7,8-dihydropyrido[2,3-d]-pyrimidin-2-yl)amino)pyridin-3-yl)piperazin-1-yl)sulfonyl)-L-valine] | ≤ 200 nM | 1000 to 10000 nM | ≤ 200 nM | – | –
15 | CCNS(=O)(=O)N1CCN(c2ccc(Nc3ncc4c(C)c(C(C)=O)c(=O)n(C5CCCC5)c4n3)nc2)CC1 [Compound A47, 4-(6-((6-Acetyl-8-cyclopentyl-5-methyl-7-oxo-7,8-dihydropyrido[2,3-d]-pyrimidin-2-yl)amino)pyridin-3-yl)-N-ethylpiperazine-1-sulfonamide] | ≤ 200 nM | 1000 to 10000 nM | ≤ 200 nM | – | –
16 | CC(=O)c1c(C)c2cnc(Nc3ccc(N4CCN(S(=O)(=O)NC(C)C)CC4)cn3)nc2n(C2CCCC2)c1=O [Compound A48, 4-(6-((6-Acetyl-8-cyclopentyl-5-methyl-7-oxo-7,8-dihydropyrido[2,3-d]-pyrimidin-2-yl)amino)pyridin-3-yl)-N-isopropylpiperazine-1-sulfonamide] | ≤ 200 nM | 1000 to 10000 nM | ≤ 200 nM | – | –
17 | CCCNS(=O)(=O)N1CCN(c2ccc(Nc3ncc4c(C)c(C(C)=O)c(=O)n(C5CCCC5)c4n3)nc2)CC1 [Compound A49, 4-(6-((6-Acetyl-8-cyclopentyl-5-methyl-7-oxo-7,8-dihydropyrido[2,3-d]-pyrimidin-2-yl)amino)pyridin-3-yl)-N-propylpiperazine-1-sulfonamide] | 200 to 500 nM | > 10000 nM | 200 to 500 nM | – | –
